Data from patent US9302991B2, “Arylamide derivatives as TTX-S blockers” (RaQualia Pharma Inc., priority 2010, dated 2016).

Biological target: T1, human Nav1.7 (hSCN9A) (Homo sapiens, UniProt Q15858)
T1 construct: expressed in transfected cells; host or cells: CHO
Experiment: Electrophysiology assay for Navs, whole cell patch clamp, Nav1.7
Format: cell-based
Details: Kinact, dissociation constant for the inactivated state, read-out: activities (Ki) against Nav1.7
Experimental: Electrophysiology Assay for Navs
Whole cell patch clamp recording is used to assess the efficacy or selectivity of Na channel blocker on human Nav1.3 (hSCN3A) expressing HEK293 cells or human Nav1.7 (hSCN9A) expressing CHO cells. Human Nav1.3 expressing HEK293 cells are grown in growth media which comprised: DMEM, 10% heat-inactivated FBS (Hyclone Laboratories Inc), 100 microgram/mL Penicillin/100 U/mL Streptomycin, 150 microgram/mL Zeocin, 3 microgram/mL Geneticin. Human Nav1.7 expressing CHO cells are grown in growth media which comprised: HAM/F-12, 9% heat-inactivated FBS (Hyclone Laboratories Inc), 100 microgram/mL Penicillin/100 U/mL Streptomycin, 100 microgram/mL Hygromycin.
Na channel expressing cells are dissociated by 0.05% Trypsine-EDTA, and then seeded on cover glass for 24-48 hr. […]
The normalized steady-state inactivation curve is constructed using 2 sec (for vehicle) or 60 sec (for drugs) conditioning pulse to different potentials followed immediately by the test pulse to −10 mV. […] The affinity of drugs to resting state of Na channels (Kresting or Kr) is assessed by 30 msec test pulse from a negative holding potential of −120 or −130 mV, where virtually all channels are in the resting state. Kr value is calculated by a conventional 1:1 binding model: Kresting(Kr)={[drug]Imax,drug/(Imax,control−Imax,drug)} […]

T1 sequence (Q15858 whole entry): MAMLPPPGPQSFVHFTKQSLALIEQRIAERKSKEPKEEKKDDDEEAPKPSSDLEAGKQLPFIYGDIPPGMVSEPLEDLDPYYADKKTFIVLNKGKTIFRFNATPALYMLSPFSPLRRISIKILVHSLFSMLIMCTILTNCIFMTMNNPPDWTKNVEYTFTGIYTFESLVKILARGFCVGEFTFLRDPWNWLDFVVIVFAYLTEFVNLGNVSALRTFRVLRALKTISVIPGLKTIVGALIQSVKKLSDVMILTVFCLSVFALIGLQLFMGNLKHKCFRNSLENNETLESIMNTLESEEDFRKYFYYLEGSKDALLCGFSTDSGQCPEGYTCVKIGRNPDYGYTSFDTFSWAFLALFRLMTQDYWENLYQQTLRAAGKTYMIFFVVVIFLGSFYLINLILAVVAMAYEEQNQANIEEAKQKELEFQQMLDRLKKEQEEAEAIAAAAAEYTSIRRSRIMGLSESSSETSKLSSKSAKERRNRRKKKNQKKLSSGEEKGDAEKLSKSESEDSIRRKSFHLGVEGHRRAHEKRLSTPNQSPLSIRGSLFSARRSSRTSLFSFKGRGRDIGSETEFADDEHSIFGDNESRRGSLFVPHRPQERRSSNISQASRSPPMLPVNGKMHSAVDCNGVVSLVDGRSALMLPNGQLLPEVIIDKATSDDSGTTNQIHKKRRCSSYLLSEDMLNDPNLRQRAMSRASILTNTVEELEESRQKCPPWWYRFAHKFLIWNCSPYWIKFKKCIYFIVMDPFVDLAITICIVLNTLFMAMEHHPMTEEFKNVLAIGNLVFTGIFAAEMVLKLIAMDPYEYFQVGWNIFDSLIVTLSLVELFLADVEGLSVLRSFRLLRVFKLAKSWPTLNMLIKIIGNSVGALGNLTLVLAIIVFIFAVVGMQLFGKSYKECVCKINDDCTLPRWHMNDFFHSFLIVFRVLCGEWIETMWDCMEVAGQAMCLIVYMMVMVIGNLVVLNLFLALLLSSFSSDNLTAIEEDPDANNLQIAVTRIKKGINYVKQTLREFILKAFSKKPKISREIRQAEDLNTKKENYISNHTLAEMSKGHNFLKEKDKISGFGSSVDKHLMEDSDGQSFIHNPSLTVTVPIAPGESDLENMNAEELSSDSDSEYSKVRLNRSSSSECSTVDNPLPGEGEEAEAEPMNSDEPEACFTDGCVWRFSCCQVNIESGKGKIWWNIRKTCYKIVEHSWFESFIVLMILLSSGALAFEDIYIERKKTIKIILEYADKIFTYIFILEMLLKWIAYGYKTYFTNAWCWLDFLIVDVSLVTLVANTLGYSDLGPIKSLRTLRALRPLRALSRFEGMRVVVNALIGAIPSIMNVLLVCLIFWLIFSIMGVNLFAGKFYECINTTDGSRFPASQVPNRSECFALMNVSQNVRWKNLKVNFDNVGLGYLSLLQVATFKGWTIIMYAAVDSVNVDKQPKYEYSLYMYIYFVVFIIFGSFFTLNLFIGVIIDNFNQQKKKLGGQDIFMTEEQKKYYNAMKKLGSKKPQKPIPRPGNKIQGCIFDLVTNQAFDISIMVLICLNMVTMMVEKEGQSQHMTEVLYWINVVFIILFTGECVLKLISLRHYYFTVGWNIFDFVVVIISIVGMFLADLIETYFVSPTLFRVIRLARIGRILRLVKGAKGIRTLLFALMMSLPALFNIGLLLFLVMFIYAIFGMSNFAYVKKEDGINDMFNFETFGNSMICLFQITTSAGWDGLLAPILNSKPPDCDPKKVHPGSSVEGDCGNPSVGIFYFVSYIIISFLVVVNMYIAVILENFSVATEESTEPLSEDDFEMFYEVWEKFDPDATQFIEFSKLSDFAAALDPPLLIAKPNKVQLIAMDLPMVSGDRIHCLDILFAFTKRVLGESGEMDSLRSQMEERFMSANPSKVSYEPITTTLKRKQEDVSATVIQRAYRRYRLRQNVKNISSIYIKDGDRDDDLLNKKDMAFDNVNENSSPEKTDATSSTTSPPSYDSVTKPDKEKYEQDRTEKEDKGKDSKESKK

CC(=O)Nc1cc(C(=O)NC(C)c2ccc(OCC(F)(F)F)nc2)ccn1 (single isomer, unassigned; (-)) [Example 1, (−)-2-acetamido-N-(1-(6-(2,2,2-trifluoroethoxy)pyridin-3-yl)ethyl)isonicotinamide]
Ki: 1200 nM
